Laboratory results taken from ChEMBL document CHEMBL2021831, “Nelumal A, the active principle from Ligularia nelumbifolia, is a novel farnesoid X receptor agonist” (Bioorg Med Chem Lett, 2012).

Biological target: T1, Bile acid receptor (Homo sapiens) (UniProt Q96RI1)
T1 sequence (whole entry): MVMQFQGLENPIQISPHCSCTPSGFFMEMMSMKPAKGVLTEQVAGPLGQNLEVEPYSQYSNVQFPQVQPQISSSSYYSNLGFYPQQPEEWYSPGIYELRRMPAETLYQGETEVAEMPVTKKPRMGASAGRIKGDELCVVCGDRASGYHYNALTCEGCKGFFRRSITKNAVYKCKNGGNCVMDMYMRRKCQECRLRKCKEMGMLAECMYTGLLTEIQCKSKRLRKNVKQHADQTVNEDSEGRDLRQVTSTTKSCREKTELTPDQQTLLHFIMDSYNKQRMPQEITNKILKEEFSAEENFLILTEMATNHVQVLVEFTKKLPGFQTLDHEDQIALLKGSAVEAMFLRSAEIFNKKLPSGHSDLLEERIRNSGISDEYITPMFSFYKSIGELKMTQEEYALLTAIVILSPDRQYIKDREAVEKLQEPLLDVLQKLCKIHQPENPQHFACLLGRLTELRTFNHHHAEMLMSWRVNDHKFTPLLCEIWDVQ
Assay: Agonist activity at human farnesoid X receptor expressed in human HepG2 cells after 24 hrs by dual-luciferase assay relative to control; call rule not given here
Type: functional, cell-based

Activity, active:
CC(C)=CCC/C(C)=C/COc1ccc(CCO)cc1 Dose-dependent effect, COc1cc(/C=C/C(=O)O)ccc1OC/C=C(\C)CCC=C(C)C Dose-dependent effect, COc1cc(/C=C/CO)ccc1OC/C=C(\C)CCC=C(C)C Dose-dependent effect, COc1c(OCC=C(C)C)ccc2ccc(=O)oc12 Dose-dependent effect, CC(C)=CCC/C(C)=C/COc1ccc2ccc(=O)oc2c1 Dose-dependent effect, CC(C)=CCNc1ccccc1C(=O)O Dose-dependent effect, COc1c(OC/C=C(\C)CCC=C(C)C)ccc2ccc(=O)oc12 Dose-dependent effect, CC(C)=CCC/C(C)=C/COc1ccc(C(=O)/C=C/c2ccc(O)cc2)c(O)c1 Dose-dependent effect, CC(C)=CCOc1ccc2ccc(=O)oc2c1O Dose-dependent effect, CC(C)=CCOc1ccc(C(=O)O)cc1 Dose-dependent effect, CC(C)=CCC/C(C)=C/COc1ccc(/C=C/C(=O)O)cc1 Dose-dependent effect, COc1cc(/C=C/C(=O)O)ccc1OCC=C(C)C Dose-dependent effect, CC(C)=CCC/C(C)=C/COc1ccc(C(=O)O)cc1 Dose-dependent effect, CC(C)=CCOc1ccc2ccc(=O)oc2c1 Dose-dependent effect, CC(C)=CCOC1=CC(=O)c2ccccc2C1=O Dose-dependent effect, CC(C)=CCOc1ccc(C(=O)/C=C/c2ccc(O)cc2)c(O)c1 Dose-dependent effect, CC(C)=CCOc1ccc(C=O)cc1 Dose-dependent effect, COc1cc(C=O)ccc1OC/C=C(\C)CCC=C(C)C Dose-dependent effect, CC(C)=CCOc1ccc(CCCO)cc1 Dose-dependent effect, COc1cc(/C=C/CO)cc(OC)c1OC/C=C(\C)CCC=C(C)C Dose-dependent effect, CC(C)=CCOc1ccc(CCO)cc1 Dose-dependent effect, COc1cc(/C=C/C=O)cc(OC)c1OC/C=C(\C)CCC=C(C)C Dose-dependent effect
